Test results from the supplement of paper PMC10307832.

Key:
Assay in all cases: relative viability (nuclei count vs DMSO), 5 days (fraction); higher = more cells survive
[1] = compound: NC1(c2ccc(-c3nc4ccn5c(=O)[nH]nc5c4cc3-c3ccccc3)cc2)CCC1 [MK-2206] + CS(=O)(=O)N1CCN(Cc2cc3nc(-c4cccc5[nH]ncc45)nc(N4CCOCC4)c3s2)CC1 [Pictilisib] (partner 1 µM)
In short: (§1)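 Nuclei were stained with Hoechst during a one-step fixation (final 0.05% Triton X-100, 1% formaldehyde, 1 ug/ml Hoechst) carried out 5 days after dosing, then counted on 4× images. The cells, lung cancer lines in 1536-well plates, had been dosed by pin tool the day after seeding with one drug alone or a fixed anchor-drug dose plus five library-drug doses (not always all listed) in √10 steps. Relative viability is the nuclei count in treated wells divided by that in vehicle wells, and each value is the median of duplicate plates.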

[2] = compound: NC1(c2ccc(-c3nc4ccn5c(=O)[nH]nc5c4cc3-c3ccccc3)cc2)CCC1 [MK-2206] + COc1cccc2cc(-c3nc([C@H]4CC[C@H](C(=O)O)CC4)n4ncnc(N)c34)[nH]c12 [OSI-027] (partner 0.5 µM)
In short: as §1

[3] = compound: CS(=O)(=O)N1CCN(Cc2cc3nc(-c4cccc5[nH]ncc45)nc(N4CCOCC4)c3s2)CC1 [Pictilisib] + C[C@@H](Oc1cc(-c2cnn(C3CCNCC3)c2)cnc1N)c1c(Cl)ccc(F)c1Cl [Crizotinib] (partner 1 µM)
In short: as §1

[4] = compound: CS(=O)(=O)N1CCN(Cc2cc3nc(-c4cccc5[nH]ncc45)nc(N4CCOCC4)c3s2)CC1 [Pictilisib] + Cc1cc(Nc2cc(N3CCN(C)CC3)nc(Sc3ccc(NC(=O)C4CC4)cc3)n2)n[nH]1 [Tozasertib] (partner 0.1 µM)
In short: as §1

[5] = compound: CS(=O)(=O)N1CCN(Cc2cc3nc(-c4cccc5[nH]ncc45)nc(N4CCOCC4)c3s2)CC1 [Pictilisib] + Cc1nc(NC(=O)N2CCC[C@H]2C(N)=O)sc1-c1ccnc(C(C)(C)C(F)(F)F)c1 [Alpelisib] (partner 2 µM)
In short: as §1

Cell Line | relative viability ([1]; first compound 0.01 µM) | relative viability ([1]; first compound 0.03162 µM) | relative viability ([1]; first compound 0.3162 µM) | relative viability ([1]; first compound 1 µM) | relative viability ([2]; first compound 0.01 µM) | relative viability ([2]; first compound 0.03162 µM) | relative viability ([2]; first compound 0.3162 µM) | relative viability ([2]; first compound 1 µM) | relative viability ([3]; first compound 0.02 µM) | relative viability ([3]; first compound 0.06325 µM) | relative viability ([3]; first compound 0.6325 µM) | relative viability ([3]; first compound 2 µM) | relative viability ([4]; first compound 0.02 µM) | relative viability ([4]; first compound 0.06325 µM) | relative viability ([4]; first compound 0.6325 µM) | relative viability ([4]; first compound 2 µM) | relative viability ([5]; first compound 0.02 µM) | relative viability ([5]; first compound 0.06325 µM) | relative viability ([5]; first compound 0.6325 µM) | relative viability ([5]; first compound 2 µM)
NCI-H322M | 0.509 | 0.529 | 0.489 | 0.511 | 0.484 | 0.49 | 0.386 | 0.377 | 0.834 | 0.936 | 0.878 | 0.834 | 0.494 | 0.49 | 0.4 | 0.282 | 0.845 | 0.8 | 0.872 | 0.684
NCI-H2170 | 0.367 | 0.363 | 0.309 | 0.262 | 0.747 | 0.701 | 0.625 | 0.588 | 1.19 | 1.09 | 0.973 | 0.617 | 0.875 | 0.823 | 0.61 | 0.391 | 0.834 | 0.879 | 0.813 | 0.583
BEN | 0.573 | 0.621 | 0.63 | 0.571 | 0.3 | 0.301 | 0.271 | 0.297 | 0.8 | 1.07 | 0.817 | 0.58 | 0.377 | 0.425 | 0.448 | 0.409 | 0.813 | 1.08 | 1.03 | 0.704
NCI-H2009 | 0.717 | 1.02 | 0.831 | 0.865 | 0.63 | 0.582 | 0.497 | 0.399 | 1.02 | 1.02 | 1.04 | 0.705 | 0.719 | 0.736 | 0.75 | 0.461 | 1.19 | 1.17 | 1.13 | 1.07
LC-2-ad | 0.452 | 0.63 | 0.502 | 0.352 | 0.76 | 0.837 | 0.592 | 0.383 | 0.443 | 0.52 | 0.392 | 0.359 | 0.482 | 0.516 | 0.345 | 0.264 | 0.918 | 0.828 | 0.634 | 0.484
NCI-H1437 | 0.472 | 0.399 | 0.366 | 0.263 | 0.91 | 0.844 | 0.746 | 0.675 | 0.941 | 0.952 | 1.03 | 0.652 | 0.383 | 0.41 | 0.324 | 0.242 | 0.932 | 0.912 | 0.68 | 0.566
NCI-H3122 | 0.542 | 0.558 | 0.491 | 0.434 | 0.875 | 0.963 | 0.424 | 0.163 | 0.258 | 0.253 | 0.194 | 0.186 | 0.323 | 0.311 | 0.321 | 0.142 | 0.749 | 0.723 | 0.658 | 0.469
NCI-H727 | 0.47 | 0.413 | 0.36 | 0.254 | 0.479 | 0.615 | 0.537 | 0.52 | 0.934 | 0.912 | 0.76 | 0.401 | 0.614 | 0.542 | 0.568 | 0.486 | 0.715 | 0.55 | 0.519 | 0.376
NCI-H1734 | 0.475 | 0.463 | 0.329 | 0.393 | 0.603 | 0.572 | 0.366 | 0.356 | 0.739 | 0.648 | 0.43 | 0.296 | 0.254 | 0.275 | 0.226 | 0.193 | 0.709 | 0.588 | 0.546 | 0.406
HCC-15 | 0.727 | 0.785 | 0.643 | 0.626 | 0.663 | 0.675 | 0.436 | 0.404 | 0.791 | 0.926 | 0.761 | 0.583 | 0.37 | 0.379 | 0.275 | 0.153 | 0.829 | 0.926 | 0.829 | 0.714
NCI-H2405 | 0.418 | 0.421 | 0.361 | 0.282 | 0.661 | 0.641 | 0.56 | 0.452 | 0.884 | 0.854 | 0.745 | 0.558 | 0.764 | 0.725 | 0.663 | 0.348 | 0.957 | 0.785 | 0.732 | 0.424
NCI-H1993 | 0.85 | 0.742 | 0.742 | 0.86 | 0.493 | 0.579 | 0.469 | 0.595 | 0.766 | 0.691 | 0.726 | 0.638 | 0.483 | 0.567 | 0.5 | 0.529 | 0.656 | 0.712 | 0.663 | 0.625
NCI-H460 | 0.355 | 0.307 | 0.294 | 0.222 | 0.642 | 0.521 | 0.321 | 0.455 | 0.956 | 0.945 | 0.501 | 0.0993 | 0.411 | 0.401 | 0.28 | 0.0523 | 0.509 | 0.521 | 0.301 | 0.141
NCI-H1651 | 0.672 | 0.655 | 0.632 | 0.408 | 0.786 | 0.684 | 0.807 | 0.784 | 0.855 | 0.863 | 0.84 | 0.683 | 0.637 | 0.567 | 0.544 | 0.286 | 0.969 | 0.906 | 0.765 | 0.516
NCI-H1975 | 0.267 | 0.259 | 0.24 | 0.232 | 0.745 | 0.611 | 0.42 | 0.381 | 0.915 | 0.9 | 0.713 | 0.307 | 0.821 | 0.691 | 0.361 | 0.107 | 0.69 | 0.564 | 0.41 | 0.227
NCI-H2126 | 0.522 | 0.47 | 0.491 | 0.468 | 0.709 | 0.683 | 0.567 | 0.48 | 0.998 | 0.988 | 0.972 | 0.688 | 0.826 | 0.807 | 0.73 | 0.517 | 0.776 | 0.712 | 0.679 | 0.564
201T | 0.669 | 0.696 | 0.651 | 0.648 | 0.772 | 0.766 | – | 0.494 | 1.04 | 1.04 | 1.03 | 0.788 | 0.99 | 0.963 | 0.82 | 0.556 | 1.01 | 1.02 | 0.979 | 0.773
HCC-78 | 0.25 | 0.202 | 0.204 | 0.162 | 0.394 | – | 0.351 | 0.285 | 0.321 | 0.305 | 0.222 | 0.18 | 0.427 | 0.46 | 0.309 | 0.281 | 0.332 | 0.279 | 0.289 | 0.19
NCI-H358 | 0.378 | 0.333 | 0.355 | 0.347 | 0.819 | 0.765 | 0.531 | 0.487 | 0.658 | 0.455 | 0.607 | 0.408 | 0.0959 | 0.104 | 0.103 | 0.0838 | 0.831 | 0.981 | 0.769 | 0.595
SK-LU-1 | 0.584 | 0.478 | 0.535 | 0.474 | 0.349 | 0.325 | 0.224 | 0.325 | 0.957 | 1.17 | 0.945 | 0.697 | 0.362 | 0.304 | 0.3 | 0.233 | 1.16 | 1.29 | 0.895 | 0.713
H3255 | 0.477 | 0.45 | 0.399 | 0.384 | 0.635 | 0.624 | 0.481 | 0.413 | 0.854 | 0.907 | 0.803 | 0.555 | 0.601 | 0.474 | 0.648 | 0.486 | 0.684 | 0.601 | 0.601 | 0.523
LOU-NH91 | 0.551 | 0.479 | 0.461 | 0.474 | 0.72 | 0.695 | 0.668 | 0.555 | 0.725 | 0.708 | 0.716 | 0.571 | 0.744 | 0.664 | 0.566 | 0.495 | 0.742 | 0.741 | 0.697 | 0.585
NCI-H1666 | 0.403 | 0.414 | 0.405 | 0.403 | 0.845 | 0.806 | 0.729 | 0.767 | 1.07 | 1.05 | 0.815 | 0.491 | 0.628 | 0.599 | 0.627 | 0.483 | 0.982 | 0.989 | 0.748 | 0.428
SK-MES-1 | 0.37 | 0.34 | 0.354 | 0.352 | 0.62 | 0.502 | 0.452 | 0.504 | 1.04 | 0.971 | 0.804 | 0.492 | 1 | 0.982 | 0.822 | 0.649 | 0.856 | 0.804 | 0.634 | 0.45
NCI-H2023 | 0.231 | 0.197 | 0.206 | 0.191 | 0.407 | 0.366 | 0.208 | 0.227 | 0.513 | 0.533 | 0.331 | 0.201 | 0.416 | 0.403 | 0.197 | 0.0836 | 0.546 | 0.488 | 0.445 | 0.32
COR-L 105 | 0.381 | 0.414 | 0.408 | 0.425 | 0.497 | 0.713 | 0.531 | 0.556 | 0.814 | 0.913 | 0.988 | 0.418 | 0.33 | 0.303 | 0.344 | 0.292 | 1.08 | 0.957 | 0.861 | 0.692
NCI-H838 | 0.517 | 0.436 | 0.464 | 0.42 | 0.484 | 0.397 | 0.327 | 0.366 | 0.871 | 0.795 | 0.76 | 0.497 | 0.266 | 0.218 | 0.242 | 0.149 | 1.04 | 0.968 | 1.02 | 0.467
SW 1573 | 0.453 | 0.548 | 0.424 | 0.457 | 0.628 | 0.491 | 0.298 | 0.423 | 0.817 | 0.791 | 0.626 | 0.268 | 0.164 | 0.174 | 0.146 | 0.137 | 0.891 | 0.766 | 0.658 | 0.532
